Experimental data as given in patent US20110105496A1, “Methods For The Treatment Of Myosin Heavy Chain-Mediated Conditions Using 4,7-Dihydrothieno[2,3-B]Pyridine Compounds” (priority 2005, published 2011).
Where two headings read alike, the source gives them in different places.

Tested on: alpha-MyHC
Assay: alpha-MyHC cytoblot process in neonatal rat ventricular myocytes (NRVM)
Assay type: cell-based
Experimental: In vitro activity of each compound is measured using the alpha-MyHC cytoblot process. Briefly, neonatal rat ventricular myocytes (NRVM) at 120,000 cells/ml in HyQ DME/High modified culture media supplemented with 10% charcoal/dextran treated FBS, 0.1% Nutridoma-SP, 1:100 MEM non-essential amino acids, 1:50 MEM amino acids solution w/o L-Gln, 1 mM sodium pyruvate and 1:100 P/S/G, are plated on gelatin coated sterile 384-well plates (Costar 3712) at 6,000 cells per well. Cells are incubated overnight at 37° C. in 5% CO2 100% humidity. Following overnight growth the media is changed to HyQ DME/High modified culture media supplemented with 0.3% Nutridoma-SP, 1:100 MEM non-essential amino acids, 1:50 MEM amino acids solution w/o L-Gln, 1 mM sodium pyruvate and 1:100 P/S/G. Cells are then dosed with serial dilutions of each compound in DMSO. Each concentration in the dose range is dosed in quadruplicate. Dosing is done in such a way so that the final DMSO concentration was 0.44%. Compound dilutions are 3-fold with the final top concentration of 10 uM. […] Following dosing, the cells are incubated for 72 hours at 37° C. in 5% CO2 100% humidity and then processed with the cytoblot method. Briefly, cell media is aspirated and cell monolayers washed with PBS and fixed with 100% methanol for 30 minutes. Fixed cells are then blocked with PBS, 0.05% Tween-20, 1% BSA, for 1 hour. Following blocking, cells are incubated with primary alpha-MyHC-specific antibody antibody (1:30 dilution of BA-G5 hybridoma conditioned media, ATCC HB276) for 1 hour. Following incubation with the primary antibody, cells are washed with PBS, 0.05% Tween-20, 1% BSA and incubated with secondary antibody (1:1000 dilution, goat-anti-mouse HRP, Southern Biotech, 1031-05) for 1 hour. Following incubation with the secondary antibody, wells are washed and incubated in SuperSignal, West Dura HRP-luminescence substrate for 30 seconds under shaking at room temperature. Luminescence is measured using a Packard Fusion plate reader. […] RLU values are converted into per cent fraction of low control and dose responses are fitted to a sigmoidal 4-parameter equation (XLFit, IDBS) where the EC50 and Max Plateau values were extracted. […] Max Plateau is the […] maximum value determined by the dose response fit.

[1] = Table 2 (esters), NRVM, 72 hours, alpha-MyHC cytoblot
[2] = Table 2 (esters), NRVM, 72 hours, maximum of dose response fit
[3] = Table 1, NRVM, 72 hours, alpha-MyHC cytoblot, mean ± spread
[4] = Table 1, NRVM, 72 hours, maximum of dose response fit, low control = vehicle only

| Structure (SMILES) | EC50 [1] [nM] | EC50 [3] [nM] | Max Plateau [2] | Max Plateau [4] | further results |
| --- | --- | --- | --- | --- | --- |
| CC1=C(C(=O)OC(C)C)C(c2ccccc2)c2c(sc(C(=O)c3ccc(Cl)c(Cl)c3)c2N)N1 (stereo not drawn) [Compound 135] | 118 |  | 186.32 per cent fraction of low control |  |  |
| CCC1=C(C(=O)OC)C(c2cccc(Cl)c2F)c2c(sc(C(=O)c3cccc([N+](=O)[O-])c3)c2N)N1 (stereo not drawn) [Compound 156] | 3.69 |  | 243.78 per cent fraction of low control |  |  |
| CCC1=C(C(=O)OCCNC(=O)OC(C)(C)C)C(c2ccccc2F)c2c(sc(C(=O)c3ccc(Cl)c(Cl)c3)c2N)N1 (stereo not drawn) [Compound 222, Bac protected 3-amino-2-(3,4 dichloro-benzoyl)-4-(2 fluoro-phenyl)-6-methyl-4,7 dihydro-thieno[2,3-b]pyridine-5-carboxylic acid 2-amino-ethyl ester] |  |  |  |  | EC50: 94.3 nM; Max Plateau: 128.75 ± 8.38 |
| CCC1=C(C(=O)OC)C(c2ccccc2F)c2c(sc(C(=O)c3cccc(C#N)c3)c2N)N1 (stereo not drawn) [Compound 164] | 2.83 |  | 279.90 per cent fraction of low control |  |  |
| CCC1=C(C(=O)OC)C(c2ccccc2F)c2c(sc(C(=O)c3ccc(Cl)c(C)c3)c2N)N1 (stereo not drawn) [Compound 150] | 21.4 |  | 228.28 per cent fraction of low control |  |  |
| CCC1=C(C(=O)OC(C)COC)C(c2ccccc2F)c2c(sc(C(=O)c3cccc(Cl)c3)c2N)N1 (stereo not drawn) [Compound 181] | 21 |  | 240.80 ± 29.53 per cent fraction of low control |  |  |
| COC(=O)C1=C(C(C)C)Nc2sc(C(=O)c3cccc(C#N)c3)c(N)c2C1c1ccccc1F (racemic) [Compound 177] | 796 |  | 162.75 per cent fraction of low control |  |  |
| Nc1c(C(=O)c2ccccc2)sc2c1C(c1ccccc1)C(C(=O)c1ccccc1)=C(c1ccccc1)N2 (stereo not drawn) [Compound 30] |  |  |  | 100.00 ± 0.00 per cent fraction of low control |  |
| CC(=O)C1=C(C)Nc2sc(C(=O)c3ccc(Cl)c(Cl)c3)c(N)c2C1c1ccc[nH]1 (stereo not drawn) [Compound 42] |  | 4590 |  | 160.56 ± 20.02 per cent fraction of low control |  |
| CC(=O)C1=C(C)Nc2sc(C(=O)c3ccc(Cl)c(Cl)c3)c(N)c2C1c1ccc(C)cc1 (stereo not drawn) [Compound 45] |  |  |  | 108.63 ± 9.14 per cent fraction of low control |  |
| CCC1=C(C(=O)OC(C)CC)C(c2ccccc2F)c2c(sc(C(=O)c3ccc(Cl)c(Cl)c3)c2N)N1 (single isomer, unassigned) [Compound 163] | 142 |  | 224.85 per cent fraction of low control |  |  |
| CCOC(=O)C1=C(CC)Nc2sc(C(=O)c3cc(C(F)(F)F)cc(C(F)(F)F)c3)c(N)c2C1c1ccccc1 (stereo not drawn) [Compound 149] | 11.1 |  | 207.18 per cent fraction of low control |  |  |
| CCCC(=O)C1=C(CCC)Nc2sc(C(=O)c3ccc(Cl)cc3Cl)c(N)c2C1c1ccccc1F (stereo not drawn) [Compound 91] |  | 198 |  | 143.39 ± 20.69 per cent fraction of low control |  |
| CC(=O)C1=C(C)Nc2sc(C(=O)c3cccc([N+](=O)[O-])c3)c(N)c2C1c1ccccc1Cl (stereo not drawn) [Compound 4, 1-[3-amino-4-(2-chloro-phenyl)-6-methyl-2-(3-nitro-benzoyl)-4,7dihydro-thieno[2,3-b]pyridin-5-yl]-ethanone] |  |  |  | 244.20 ± 37.25 per cent fraction of low control |  |
| CC1=C(C(=O)OCCNC(=O)OC(C)(C)C)C(c2ccccc2F)c2c(sc(C(=O)c3ccc(Cl)c(Cl)c3)c2N)N1 (stereo not drawn) [compound 223] |  |  |  |  | EC50: 10.8 nM; Max Plateau: 213.11 ± 12.55 |
| CC1=C(C(=O)OCC2CCCN2C)C(c2ccccc2)c2c(sc(C(=O)c3ccc(Cl)c(Cl)c3)c2N)N1 (stereo not drawn) [Compound 129] | 4580 |  | 150.08 ± 9.89 per cent fraction of low control |  |  |
| CC1=C(C(=O)OCCN2CCOCC2)C(c2ccccc2)c2c(sc(C(=O)c3ccc(Cl)c(Cl)c3)c2N)N1 (stereo not drawn) [Compound 126] | 210 |  | 193.06 ± 11.02 per cent fraction of low control |  |  |
| CC(=O)C1=C(C)Nc2sc(C(=O)c3ccc(Cl)c(Cl)c3)c(N)c2C1c1ccccc1 (stereo not drawn) [Compound 2] |  | 177 |  | 207.74 ± 23.00 per cent fraction of low control |  |
| CC(=O)NCCOC(=O)C1=C(C)Nc2sc(C(=O)c3ccc(Cl)c(Cl)c3)c(N)c2C1c1ccccc1 (stereo not drawn) [compound 214] |  |  |  |  | Max Plateau: 100.00 ± 0.00 |
| CCC1=C(C(=O)OC)C(c2cc(F)cc(F)c2)c2c(sc(C(=O)c3ccc(Cl)c(Cl)c3)c2N)N1 (stereo not drawn) [Compound 171] | 0.828 |  | 296.79 per cent fraction of low control |  |  |
| CC(=O)C1=C(C)Nc2sc(C(=O)c3ccc(Cl)c(Cl)c3)c(N)c2C1c1ccc(Cl)c(Cl)c1 (stereo not drawn) [Compound 47] |  | 116 |  | 173.47 ± 25.64 per cent fraction of low control |  |
| CCC1=C(C(=O)OC(C)CC)C(c2ccccc2F)c2c(sc(C(=O)c3cccc(C#N)c3)c2N)N1 (single isomer, unassigned) [Compound 166] | 33.3 |  | 219.07 per cent fraction of low control |  |  |
| CCC(=O)C1=C(CC)Nc2sc(C(=O)c3ccc(Cl)c(Cl)c3)c(N)c2C1c1ccccc1C(F)(F)F (stereo not drawn) [Compound 60] |  |  |  | 100.00 ± 0.00 per cent fraction of low control |  |
| C=CCOC(=O)C1=C(C)Nc2sc(C(=O)c3ccc(Cl)c(Cl)c3)c(N)c2C1c1ccccc1 (stereo not drawn) [Compound 127] | 54 |  | 195.71 ± 29.42 per cent fraction of low control |  |  |

Continued, in another order:

| EC50 [1] [nM] | EC50 [3] [nM] | Structure (SMILES) | Max Plateau [2] | Max Plateau [4] | further results |
| --- | --- | --- | --- | --- | --- |
|  | 42.9 | CCC(=O)C1=C(CC)Nc2sc(C(=O)c3ccc(Cl)c(Cl)c3)c(N)c2C1c1ccccc1C (stereo not drawn) [Compound 56] |  | 293.74 ± 50.82 per cent fraction of low control |  |
|  | 118 | CCCC(=O)C1=C(CCC)Nc2sc(C(=O)c3cc(Cl)ccc3Cl)c(N)c2C1c1ccccc1 (stereo not drawn) [Compound 94] |  | 153.83 ± 13.14 per cent fraction of low control |  |
|  | 2330 | CC(=O)C1=C(C)Nc2sc(C(=O)c3cccnc3)c(N)c2C1c1ccccc1 (stereo not drawn) [Compound 5] |  | 286.43 ± 42.04 per cent fraction of low control |  |
|  | 16.1 | CCC(=O)C1=C(CC)Nc2sc(C(=O)c3ccc(Cl)c(Cl)c3)c(N)c2C1c1ccccc1Cl (stereo not drawn) [Compound 38] |  | 288.93 ± 52.81 per cent fraction of low control |  |
|  | 4.38 | CCC(=O)C1=C(CC)Nc2sc(C(=O)c3ccccc3)c(N)c2C1c1cc(F)cc(F)c1 (stereo not drawn) [Compound 105] |  | 273.18 ± 37.33 per cent fraction of low control |  |
|  | 9.23 | CCC(=O)C1=C(CC)Nc2sc(C(=O)c3ccc(F)c(F)c3)c(N)c2C1c1ccccc1 (stereo not drawn) [Compound 72] |  | 223.99 ± 24.51 per cent fraction of low control |  |
|  | 5.4 | CCC(=O)C1=C(CC)Nc2sc(C(=O)c3ccc(Cl)c(Cl)c3)c(N)c2C1c1cccc(F)c1 (stereo not drawn) [Compound 84] |  | 242.72 ± 19.34 per cent fraction of low control |  |
|  | 233 | CCC(=O)C1=C(CC)Nc2sc(C(=O)c3ccccc3)c(N)c2C1c1cccnc1 (stereo not drawn) [Compound 68] |  | 175.88 ± 14.54 per cent fraction of low control |  |
|  | 627 | CCCC(=O)C1=C(CCC)Nc2sc(C(=O)c3ccc(Cl)c(Cl)c3)c(N)c2C1c1ccccc1 (stereo not drawn) [Compound 86] |  | 131.26 ± 2.34 per cent fraction of low control |  |
| 111000 |  | CCC1=C(C(=O)OC)C(c2ccccc2F)c2c(sc(C(=O)c3cccc(Cl)c3)c2N)N1 (stereo not drawn) [Compound 167] | 255.95 per cent fraction of low control |  |  |
|  | 48.9 | CC(=O)C1=C(C)Nc2sc(C(=O)c3cccc(Br)c3)c(N)c2C1c1ccccc1 (stereo not drawn) [Compound 6] |  | 289.34 ± 70.69 per cent fraction of low control |  |
|  | 876 | COc1ccccc1C1C(C(C)=O)=C(C)Nc2sc(C(=O)c3ccccc3)c(N)c21 (stereo not drawn) [Compound 18] |  | 215.25 ± 44.08 per cent fraction of low control |  |
|  | 4.94 | CCC(=O)C1=C(CC)Nc2sc(C(=O)c3cccc(Cl)c3)c(N)c2C1c1ccccc1 (stereo not drawn) [Compound 66] |  | 306.19 ± 54.21 per cent fraction of low control |  |
|  | 17.1 | CCC(=O)C1=C(CC)Nc2sc(C(=O)c3cccc([N+](=O)[O-])c3)c(N)c2C1c1ccccc1 (stereo not drawn) [Compound 96] |  | 254.87 ± 72.67 per cent fraction of low control |  |
|  | 610 | CCCC(=O)C1=C(CCC)Nc2sc(C(=O)c3ccc(F)c(F)c3)c(N)c2C1c1ccccc1 (stereo not drawn) [Compound 95] |  | 147.01 ± 6.43 per cent fraction of low control |  |
|  | 6.77 | CCC(=O)C1=C(CC)Nc2sc(C(=O)c3ccccc3)c(N)c2C1c1ccccc1F (stereo not drawn) [Compound 78] |  | 269.77 ± 35.30 per cent fraction of low control |  |
